Earlier results as cited in patent US20250186613A1 (The Trustees of the University of Pennsylvania, priority 2022, published 2025).
Like-named read-outs stand apart in the source and are kept apart here.

Columns and labels:
[1] = cited from earlier work
[2] = daily 0.05 mg/kg subcutaneous, cited from earlier work
GLP-2 receptor = molecular target: T1, GLP-2 receptor (Homo sapiens, UniProt O95838); details: relative to GLP2; cited from earlier work
T1 sequence (O95838 1-553): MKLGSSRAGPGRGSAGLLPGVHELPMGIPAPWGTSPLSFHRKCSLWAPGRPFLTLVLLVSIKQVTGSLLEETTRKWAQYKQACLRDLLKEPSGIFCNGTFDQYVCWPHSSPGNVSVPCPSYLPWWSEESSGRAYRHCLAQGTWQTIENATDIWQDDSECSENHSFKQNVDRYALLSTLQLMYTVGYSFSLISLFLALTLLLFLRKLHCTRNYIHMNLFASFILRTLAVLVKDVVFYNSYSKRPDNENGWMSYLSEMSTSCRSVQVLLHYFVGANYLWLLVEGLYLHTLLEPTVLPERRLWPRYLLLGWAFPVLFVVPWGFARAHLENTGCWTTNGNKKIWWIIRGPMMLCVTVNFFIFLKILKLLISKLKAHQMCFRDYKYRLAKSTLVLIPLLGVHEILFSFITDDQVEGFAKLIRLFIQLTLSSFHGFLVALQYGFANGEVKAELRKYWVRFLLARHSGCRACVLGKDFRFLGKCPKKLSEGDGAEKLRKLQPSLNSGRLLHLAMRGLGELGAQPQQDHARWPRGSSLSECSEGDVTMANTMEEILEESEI

In the case of CC[C@H](C)[C@H](NC(=O)[C@H](Cc1ccccc1)NC(=O)[C@H](CC(=O)O)NC(=O)[C@H](CCCN=C(N)N)NC(=O)[C@H](C)NC(=O)[C@H](C)NC(=O)[C@H](CC(C)C)NC(=O)[C@H](CC(N)=O)NC(=O)[C@H](CC(=O)O)NC(=O)[C@H](CC(C)C)NC(=O)[C@@H](NC(=O)[C@@H](NC(=O)[C@H](CC(N)=O)NC(=O)[C@H](CCSC)NC(=O)[C@H](CCC(=O)O)NC(=O)[C@H](CC(=O)O)NC(=O)[C@H](CO)NC(=O)[C@H](Cc1ccccc1)NC(=O)[C@H](CO)NC(=O)CNC(=O)[C@H](CC(=O)O)NC(=O)[C@H](C)NC(=O)[C@@H](N)Cc1cnc[nH]1)[C@@H](C)O)[C@@H](C)CC)C(=O)N[C@@H](CC(N)=O)C(=O)N[C@@H](Cc1c[nH]c2ccccc12)C(=O)N[C@@H](CC(C)C)C(=O)N[C@H](C(=O)N[C@@H](CCC(N)=O)C(=O)N[C@H](C(=O)N[C@@H](CCCCN)C(=O)N[C@H](C(=O)N[C@H](C(=O)N[C@@H](CC(=O)O)C(=O)O)[C@@H](C)O)[C@@H](C)CC)[C@@H](C)O)[C@@H](C)CC [GLP-2], the serum half-life ([1]; native peptide, cleaved by DPP IV) is listed as 0.083 h.
For CC[C@H](C)[C@H](NC(=O)[C@H](Cc1ccccc1)NC(=O)[C@H](CC(=O)O)NC(=O)[C@H](CCCNC(=N)N)NC(=O)[C@H](C)NC(=O)[C@H](C)NC(=O)[C@H](CC(C)C)NC(=O)[C@H](CC(N)=O)NC(=O)[C@H](CC(=O)O)NC(=O)[C@H](CC(C)C)NC(=O)[C@@H](NC(=O)[C@@H](NC(=O)[C@H](CC(N)=O)NC(=O)[C@H](CCSC)NC(=O)[C@H](CCC(=O)O)NC(=O)[C@H](CC(=O)O)NC(=O)[C@H](CO)NC(=O)[C@H](Cc1ccccc1)NC(=O)[C@H](CO)NC(=O)CNC(=O)[C@H](CC(=O)O)NC(=O)CNC(=O)[C@@H](N)Cc1c[nH]cn1)[C@@H](C)O)[C@@H](C)CC)C(=O)N[C@@H](CC(N)=O)C(=O)N[C@@H](Cc1c[nH]c2ccccc12)C(=O)N[C@@H](CC(C)C)C(=O)N[C@H](C(=O)N[C@@H](CCC(N)=O)C(=O)N[C@H](C(=O)N[C@@H](CCCCN)C(=O)N[C@H](C(=O)N[C@H](C(=O)N[C@@H](CC(=O)O)C(=O)O)[C@@H](C)O)[C@@H](C)CC)[C@@H](C)O)[C@@H](C)CC [Teduglutide], the serum half-life ([1]; A2G mutation for DPP IV resistance) is given as 1.5 h, the “T½ (h)” value ([1]; in vivo) is given as 1.5 (0.1) h and the “patients who achieved >20% reduction of PN volume per week from the baseline” value ([2]; 2 years of treatment) is given as 90%. The “patients who obtained >1 additional days PN off per week from the baseline” value ([2]; 2 years of treatment) was 70% and the PN volume ([2]; throughout 2 years of treatment) was “sustained and continuous reduction of PN volume”.
For Apraglutide, the “T½” value ([1]; in vivo) is given as 30 h and the “EC50 (/GLP2)” value (GLP-2 receptor) is given as 0.5 /GLP2.
For Glepaglutide, the “T½” value ([1]; in vivo) is given as 50 h and the “EC50 (/GLP2)” value (GLP-2 receptor) is given as 4 /GLP2.
